Reference: patent US20250127937A1, “FAP INHIBITOR” (UNIVERSITÄT HEIDELBERG, priority 2018, published 2025)

What was measured:
human CD26 = human CD26 (Homo sapiens (Human), UniProt P27487); assay: Radioligand binding to CD26 expressing cells (HEK-CD26); details: 60 min incubation
Procedure: In vitro binding studies were performed using the human tumor cell lines BxPC3, Capan-2, MCF-7 (purchased from Sigma Aldrich Chemie GmbH) and SK-LMS-1 (purchased from ATCC) as well as stably transfected FAP-cell lines HT-1080-FAP, HEK-muFAP and the CD26 expressing cell line HEK-CD26 (obtained from Stefan Bauer, NCT Heidelberg). All cells were cultivated in Dulbecco's modified Eagle's medium (DMEM) containing 10% fetal calf serum at 37° C./5% carbon dioxide. For fluorescence internalization experiments, cells were seeded on coverslips and stained with FAPI-02-Atto488 and DAPI for cell nucleus staining. Images were acquired on a laser scanning confocal microscope using a 63× oil immersion objective.
For radioligand binding studies, cells were seeded in 6-well plates and cultivated for 48 h to a final confluence of approx. 80-90% (1.2-2 mio cells/well). The medium was replaced by 1 mL fresh medium without fetal calf serum. The radiolabeled compound was added to the cell culture and incubated for different time intervals ranging from 10 min to 24 h. Competition experiments were performed by simultaneous exposure to unlabeled (10^−5 M to 10^−9 M) and radiolabeled compound for 60 min. […] Radioactivity was determined in a γ-counter (Cobra II, Packard), normalized to 1 mio cells and calculated as percentage of the applied dose (% ID). […]

human FAP-α = human FAP-α (Homo sapiens (Human), UniProt Q12884); assay: Competitive binding of radiolabeled compound to HT-1080-FAP cells against unlabeled compound; details: radiolabeled FAPI-01 (I-125) / FAPI-02 (Lu-177), HT-1080-FAP cells, 60 min; read-out: IC50 human FAP-α
Procedure: Competition experiments were performed by simultaneous exposure to unlabeled (10^−5 M to 10^−9M) and radiolabeled compound for 60 min. […] For internalization experiments, surface bound activity was removed by incubating the cells with 1 M glycine-HCl buffer for 10 min. The radioactivity was measured using a γ-counter, normalized to 1 mio cells and calculated as percentage of applied dose (% ID).
The medium was replaced by 1 mL fresh medium without fetal calf serum. […] Competition experiments were performed by simultaneous exposure to unlabeled (10^−5 M to 10^−9 M) and radiolabeled compound for 60 min. […] In all experiments, the cells were washed with 1 mL phosphate-buffered saline pH 7.4 for 2 times and subsequently lysed with 1.4 ml lysis buffer (0.3 M NaOH, 0.2% SDS). Radioactivity was determined in a γ-counter (Cobra II, Packard), normalized to 1 mio cells and calculated as percentage of the applied dose (% ID). Each experiment was performed 3 times, and 3 repetitions per independent experiment were acquired.

HT-1080-FAP cells [1] = assay: Radioligand binding and internalization in HT-1080-FAP cells; assay type: cell-based, human
Procedure: Radioligand binding studies were performed using HT-1080-FAP cells. The radiolabeled compound was added to the cell culture and incubated for different time intervals ranging from 10 min to 24 h. Competition experiments were performed by simultaneous exposure to unlabeled (10^−5 M to 10^−9M) and radiolabeled compound for 60 min. For efflux experiments, radioactive medium was removed after incubation for 60 min and replaced by non-radioactive medium for time intervals ranging from 1 to 24 h. For internalization experiments, surface bound activity was removed by incubating the cells with 1 M glycine-HCl buffer for 10 min. The radioactivity was measured using a γ-counter, normalized to 1 mio cells and calculated as percentage of applied dose (% ID).
For radioligand binding studies, cells were seeded in 6-well plates and cultivated for 48 h to a final confluence of approx. 80-90% (1.2-2 mio cells/well). The medium was replaced by 1 mL fresh medium without fetal calf serum. The radiolabeled compound was added to the cell culture and incubated for different time intervals ranging from 10 min to 24 h. Competition experiments were performed by simultaneous exposure to unlabeled (10^−5 M to 10^−9 M) and radiolabeled compound for 60 min. For efflux experiments, radioactive medium was removed after incubation for 60 min and replaced by non-radioactive medium for time intervals ranging from 1 to 24 h. In all experiments, the cells were washed with 1 mL phosphate-buffered saline pH 7.4 for 2 times and subsequently lysed with 1.4 ml lysis buffer (0.3 M NaOH, 0.2% SDS). Radioactivity was determined in a γ-counter (Cobra II, Packard), normalized to 1 mio cells and calculated as percentage of the applied dose (% ID). Each experiment was performed 3 times, and 3 repetitions per independent experiment were acquired.
For internalization experiments the cells were incubated with the radiolabeled compound for 60 min at 37° C. and 4° C. Cellular uptake was terminated by removing medium from the cells and washing 2 times with 1 mL PBS. Subsequently, cells were incubated with 1 mL of glycine-HCl (1 Min PBS, pH 2.2) for 10 min at room temperature to remove the surface bound activity. The cells were washed with 2 mL of ice-cold PBS and lysed with 1.4 mL of lysis buffer to determine the internalized fraction. For the cells incubated at 4° C., all washing and elution steps were carried out using ice-cold buffers. The radioactivity was measured using a γ-counter, normalized to 1 mio cells and calculated as percentage of applied dose (% ID).

HT-1080-FAP cells [2] = assay: Efflux experiments in HT-1080-FAP cells; assay type: cell-based, human; details: after 24 h in compound-free medium
Capan-2 tumor xenografts = assay: Organ distribution ex vivo in Capan-2 tumor bearing nude mice; set-up: species or system mouse; details: Lu-177 labeled, 1 h after i.v., Capan-2, mean ± SD, n = 3
Procedure: For in vivo experiments, 8 week old BALB/c nu/nu mice (Charles River) were subcutaneously inoculated into the right trunk with 5×10^6 with HT-1080-FAP, Capan-2 or SK-LMS-1 cells, respectively. When the size of the tumor reached approximately 1 cm^3, the radiolabeled compound was injected via the tail vein (˜10 MBq for small-animal PET imaging; ˜1 MBq for organ distribution). PET imaging was performed up to 140 min after intravenous injection of 1 MBq of Ga-68 labeled compound per mouse using the Inveon PET small-animal PET scanner (Siemens). Images were reconstructed iteratively using the 3D-OSEM+MAP method and were converted to standardized uptake value (SUV) images. Quantification was done using a ROI technique and expressed as SUV mean. For organ distribution of Lu-177 labeled compound (approx. […] per mouse), the animals (n=3 for each time point) were sacrificed after indicated time points (from 30 min to 24 h). The distributed radioactivity was measured in all dissected organs and in blood using a γ-counter (Cobra Autogamma, Packard). The values are expressed as percentage of injected dose per gram of tissue (% ID/g).

[3] = Preliminary dosimetry estimate in patients; assay type: in vivo, human

Sequence of human FAP-α (Q12884 whole entry): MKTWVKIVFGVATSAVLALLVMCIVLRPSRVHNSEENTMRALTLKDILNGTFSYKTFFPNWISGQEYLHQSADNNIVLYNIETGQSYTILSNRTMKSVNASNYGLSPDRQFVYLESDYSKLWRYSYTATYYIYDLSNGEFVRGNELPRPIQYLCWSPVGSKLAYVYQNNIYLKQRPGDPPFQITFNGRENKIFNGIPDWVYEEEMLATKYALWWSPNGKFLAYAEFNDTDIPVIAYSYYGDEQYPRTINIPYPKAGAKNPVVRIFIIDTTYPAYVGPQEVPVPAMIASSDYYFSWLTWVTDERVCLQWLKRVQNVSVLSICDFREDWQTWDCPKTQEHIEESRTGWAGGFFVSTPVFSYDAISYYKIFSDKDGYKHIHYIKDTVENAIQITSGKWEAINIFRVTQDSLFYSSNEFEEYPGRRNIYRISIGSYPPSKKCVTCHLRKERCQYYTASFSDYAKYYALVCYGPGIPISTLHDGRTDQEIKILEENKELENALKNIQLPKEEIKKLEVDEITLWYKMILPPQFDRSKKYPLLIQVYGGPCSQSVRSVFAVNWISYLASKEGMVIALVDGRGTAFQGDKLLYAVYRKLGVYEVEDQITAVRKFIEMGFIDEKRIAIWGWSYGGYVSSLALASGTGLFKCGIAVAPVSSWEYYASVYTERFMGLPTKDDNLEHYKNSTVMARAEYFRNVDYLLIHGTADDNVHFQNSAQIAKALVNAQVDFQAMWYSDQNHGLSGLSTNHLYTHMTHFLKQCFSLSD
Sequence of human CD26 (P27487 whole entry): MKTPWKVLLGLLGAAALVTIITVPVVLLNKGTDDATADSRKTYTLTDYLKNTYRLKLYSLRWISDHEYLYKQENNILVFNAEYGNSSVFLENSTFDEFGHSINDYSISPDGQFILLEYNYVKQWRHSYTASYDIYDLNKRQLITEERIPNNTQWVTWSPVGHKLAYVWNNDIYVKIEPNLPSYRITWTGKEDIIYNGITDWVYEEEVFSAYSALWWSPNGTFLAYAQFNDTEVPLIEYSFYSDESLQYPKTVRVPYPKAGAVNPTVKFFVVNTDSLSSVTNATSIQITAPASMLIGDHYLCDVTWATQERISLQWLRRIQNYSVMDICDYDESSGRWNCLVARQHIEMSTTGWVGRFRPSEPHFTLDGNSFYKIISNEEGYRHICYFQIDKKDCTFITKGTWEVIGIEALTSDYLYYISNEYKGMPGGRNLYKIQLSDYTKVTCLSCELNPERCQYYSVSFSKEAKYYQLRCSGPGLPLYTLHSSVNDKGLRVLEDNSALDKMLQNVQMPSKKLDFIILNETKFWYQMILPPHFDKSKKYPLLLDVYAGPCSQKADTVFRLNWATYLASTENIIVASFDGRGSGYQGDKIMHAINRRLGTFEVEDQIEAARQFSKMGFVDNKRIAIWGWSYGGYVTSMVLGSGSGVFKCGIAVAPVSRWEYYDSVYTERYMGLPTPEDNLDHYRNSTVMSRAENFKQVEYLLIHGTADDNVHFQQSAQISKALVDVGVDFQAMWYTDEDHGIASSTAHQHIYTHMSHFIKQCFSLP

binding to CD26 expressing cells (% ID) (human CD26): 0.13±0.01%
IC50 (human FAP-α): 21 nM
Blood uptake (Capan-2 tumor xenografts): 0.83 ± 0.127 % ID/g
Brain uptake (Capan-2 tumor xenografts): 0.05 ± 0.010 % ID/g
Heart uptake (Capan-2 tumor xenografts): 0.37 ± 0.031 % ID/g
Intestines uptake (Capan-2 tumor xenografts): 0.30 ± 0.064 % ID/g
Kidneys uptake (Capan-2 tumor xenografts): 1.45 ± 0.106 % ID/g
Liver uptake (Capan-2 tumor xenografts): 0.36 ± 0.015 % ID/g
Lungs uptake (Capan-2 tumor xenografts): 0.72 ± 0.021 % ID/g
Muscle uptake (Capan-2 tumor xenografts): 0.94 ± 0.168 % ID/g
Spleen uptake (Capan-2 tumor xenografts): 0.25 ± 0.015 % ID/g
Tumor uptake (Capan-2 tumor xenografts): 3.82 ± 0.390 % ID/g
equivalent dose of an exam ([3]; 200 MBq Ga-68): 3-4 mSv
effective dose ([3]; calculated with IDAC1/ICRP60): 1.82E-02 mSv/MBq
effective dose ([3]; calculated with IDAC2/ICRP103): 1.79E-02 mSv/MBq
effective dose ([3]; calculated with OLINDA): 1.80E-02 mSv/MBq
Structure (SMILES): N#C[C@@H]1CCCN1C(=O)CNC(=O)c1ccnc2ccc(OCCCN3CCN(C(=O)CN4CCN(CC(=O)O)CCN(CC(=O)O)CCN(CC(=O)O)CC4)CC3)cc12 [FAPI-02]
activity remaining after 24 h of incubation relative to initial radioactivity (HT-1080-FAP cells [1]; 24 h incubation, FAPI-01 compared to binding after 10 min): 34%
internalized proportion of uptake (HT-1080-FAP cells [1]; Lu-177 labeled, after 60 min): 96%
uptake into FAP-α expressing cells (HT-1080-FAP cells [1]; Lu-177 labeled, after 60 min): 20.15±1.74 % ID
retention of the originally accumulated radioactivity (efflux) (HT-1080-FAP cells [2]): 12%
